{
  "source": "patent US8835353B2",
  "about": "“Germination acceleration” (Valent BioSciences Corporation, priority 2007, dated 2014)",
  "key": {"[1]": {"system": "sweet corn (cv. Silver Queen)", "experiment": "Pouch study: seed treatment, coleoptile and radicle growth at 10° C.", "format": "in vivo", "settings": "6BA 10 ppm, pouches at 10° C.", "description": "For all seed treatments, 1 ppm active ingredient refers to 1 microgram active ingredient per gram of seed. For these studies, GA3, GA4/7, 6BA, or CPPU were each dispensed into a 15 ml centrifuge tube, and 2.5 ml of de-ionized water was then added to each tube. The solution was mixed on a vortex mixer and 0.25 ml of this solution was then placed in another 50 ml. centrifuge tube along with 10 grams of sweet corn seed (cv. Silver Queen) or field corn (cv. Hybrid 2652) seed and rotated 360° on a Labquake Rotissarie for 10 minutes to ensure proper seed coverage. To simulate commercial seed treatments, the amount of solutions was just sufficient to wet the seeds. […] Pouch studies: A CYG germination pouch was drenched with 17 ml of 10° C. de-ionized water. Three treated seeds were placed in the trough of the germination paper, contained within the pouch. Pouches were placed in a Nalgene plastic container cooled to 10° C. The container was incubated in a 10° C. growth chamber with a 16 hour light cycle for the duration of the study. Seedling coleoptiles and radicles were measured by removing the seedling from the pouch and measuring with a ruler. […] The amount of applied is expressed as ppm or micrograms of compound per gram of seed. […]"}, "[2]": {"system": "sweet corn (cv. Silver Queen)", "experiment": "Pro-Mix study: seed treatment, coleoptile emergence and length at 10° C.", "format": "in vivo", "settings": "ProMix at 10° C.", "description": "(§1) For all seed treatments, 1 ppm active ingredient refers to 1 microgram active ingredient per gram of seed. For these studies, GA3, GA4/7, 6BA, or CPPU were each dispensed into a 15 ml centrifuge tube, and 2.5 ml of de-ionized water was then added to each tube. The solution was mixed on a vortex mixer and 0.25 ml of this solution was then placed in another 50 ml. centrifuge tube along with 10 grams of sweet corn seed (cv. Silver Queen) or field corn (cv. Hybrid 2652) seed and rotated 360° on a Labquake Rotissarie for 10 minutes to ensure proper seed coverage. To simulate commercial seed treatments, the amount of solutions was just sufficient to wet the seeds. Seeds were dried overnight in weigh boats.\nPro-Mix studies: Pro Mix potting media was cooled to 10° C. and then placed in a 20 inch×10 inch flat to a depth of 5 cm. A trough of twenty seeds/treatment were planted at a depth of 2 cm. Four trays of twenty seeds each were planted per treatment. The trays were incubated in a growth chamber set at 10° C., 16 hour light cycle. Corn emergence counts were made daily.\nSweet corn (cv. Silver Queen) seeds were treated with solutions containing GA4/7, 6BA, or GA4/7 and 6BA, planted into ProMix soil, and held at 10° C. At 22 days after treatment, more seedlings from seeds treated with the combination treatment of GA4/7 and 6BA had emerged than seeds treated with 6BA or GA4/7 alone (Table 2).\nSweet corn (cv. Silver Queen) seeds were treated with solutions containing GA3, 6BA, or GA3 and 6BA, planted into ProMix soil, and held at 10° C."}, "[3]": {"system": "hybrid field corn (Hybrid 2652)", "experiment": "Petri plate study: seed treatment, coleoptile emergence at 10° C.", "format": "in vivo", "settings": "6BA 10 ppm, petri plates at 10° C.", "description": "For all seed treatments, 1 ppm active ingredient refers to 1 microgram active ingredient per gram of seed. For these studies, GA3, GA4/7, 6BA, or CPPU were each dispensed into a 15 ml centrifuge tube, and 2.5 ml of de-ionized water was then added to each tube. The solution was mixed on a vortex mixer and 0.25 ml of this solution was then placed in another 50 ml. centrifuge tube along with 10 grams of sweet corn seed (cv. Silver Queen) or field corn (cv. Hybrid 2652) seed and rotated 360° on a Labquake Rotissarie for 10 minutes to ensure proper seed coverage. To simulate commercial seed treatments, the amount of solutions was just sufficient to wet the seeds. […] Petri plate studies: Each standard petri plate (100 mm×50 mm) contained 1 blue Anchor germination circle (3¼ inches in diameter) drenched with 7 ml of de-ionized water cooled to 10° C. Each treatment consisted of 4 petri plates of 10 seeds each. After plating, the petri plates were placed in a Nalgene plastic container cooled to 10° C. This in turn was incubated in a 10° C. growth chamber with a 16 hour light cycle for the duration of the study. Counts were made by visually examining each seed for radicle and coleoptile protrusion. Hybrid field corn seeds (cv. Hybrid 2652) were treated with solutions containing GA4/7 or 6BA or combinations of GA4/7 and 6BA, plated onto wetted paper in a petri plate, and held at 10° C."}, "seedlings": {"system": "seedlings", "experiment": "Preliminary studies: seedling quality and radicle growth after seed treatment", "format": "in vivo, corn", "settings": "high rates of 6BA (>10 ppm)"}, "[4]": {"system": "sweet corn (cv. Silver Queen)", "experiment": "Petri plate study: seed treatment, coleoptile emergence at 10° C.", "format": "in vivo", "settings": "petri plates at 10° C.", "description": "as §1\nPetri plate studies: Each standard petri plate (100 mm×50 mm) contained 1 blue Anchor germination circle (3¼ inches in diameter) drenched with 7 ml of de-ionized water cooled to 10° C. Each treatment consisted of 4 petri plates of 10 seeds each. After plating, the petri plates were placed in a Nalgene plastic container cooled to 10° C. This in turn was incubated in a 10° C. growth chamber with a 16 hour light cycle for the duration of the study. Counts were made by visually examining each seed for radicle and coleoptile protrusion. […]"}},
  "data": [
    {"smiles": "c1ccc(CNc2ncnc3nc[nH]c23)cc1", "note": "[6BA, N^6-phenylmethyl-1H-purin-6-amine]", "values": [
      {"measurement": "Coleoptile length (cm) at 22 days after treatment", "setting": "[1]", "value": 2.17, "unit": "cm"},
      {"measurement": "Radicle length (cm) at 22 days after treatment", "setting": "[1]", "value": 2.78, "unit": "cm"},
      {"measurement": "Percent coleoptile emergence at 21 days after treatment", "setting": "[2]; 6BA 10 ppm", "value": 3.7, "unit": "%"},
      {"measurement": "Percent coleoptile emergence at 22 days after treatment", "setting": "[2]; 6BA 10 ppm, 22 days", "value": 6.2, "unit": "%"},
      {"measurement": "Coleoptile length above ground (mm) at 32 days after treatment", "setting": "[2]; 6BA 10 ppm, 32 days", "value": 17.1, "unit": "mm"},
      {"measurement": "Length of the emerged coleoptiles at 32 days after treatment, compared to the control", "setting": "[2]; 6BA, 32 days", "value": "no significant effect compared to the control"},
      {"measurement": "Percent coleoptile emergence at 12 days after treatment", "setting": "[3]", "value": 32, "unit": "%"},
      {"measurement": "Radicle growth", "setting": "seedlings", "value": "reduced radicle growth"},
      {"measurement": "Seedling quality", "setting": "seedlings", "value": "substantially reduced seedling quality"}
    ]},
    {"smiles": "O=C(Nc1ccccc1)Nc1ccnc(Cl)c1", "note": "[CPPU, 1-(2-chloro-4-pyridyl)-3-phenylurea]", "values": [
      {"measurement": "Percent coleoptile emergence at 14 days after treatment", "setting": "[4]; CPPU 1 ppm", "value": 0, "unit": "%"},
      {"measurement": "Percent coleoptile emergence at 14 days after treatment", "setting": "[4]; CPPU 10 ppm", "value": 4, "unit": "%"}
    ]},
    {"smiles": "C=C1C[C@]23C[C@@]1(O)CC[C@H]2[C@@]12C=C[C@H](O)[C@@](C)(C(=O)O1)[C@H]2[C@@H]3C(=O)O", "note": "[GA3, (1α,2β,4aα,4bβ,10β)-2,4a,7-trihydroxy-1-methyl-8-methylenegibb-3-ene-1,10-dicarboxylic acid 1,4a-lactone]", "values": [
      {"measurement": "Percent coleoptile emergence at 21 days after treatment", "setting": "[2]; GA3 100 ppm", "value": 1.2, "unit": "%"}
    ]}
  ]
}
